Tests used:
SK-OV-3 [1] = test: Growth inhibition of human SKOV3 cells after 48 hrs by SRB assay; format: functional, cell-based; details: SK-OV-3, 48 h
HUVEC = test: Antivascular activity against HUVEC after 24 hrs by xCELLigence assays; format: functional, cell-based; details: Homo sapiens
MCF7 = test: Growth inhibition of human MCF7 cells after 48 hrs by SRB assay; format: functional, cell-based; details: MCF7, 48 h
SK-OV-3 [2] = test: Growth inhibition of paclitaxel-resistant human SKOV3 cells after 48 hrs by SRB assay; format: functional, cell-based; details: SK-OV-3, 48 h
PC-3 = test: Growth inhibition of human PC3 cells after 48 hrs by SRB assay; format: functional, cell-based; details: PC-3, 48 h
MRC5 = test: Growth inhibition of human MRC5 cells after 48 hrs by SRB assay; format: cell-based; details: MRC5, 48 h
Bos taurus = species: Bos taurus; test: Inhibition of purified bovine tubulin polymerization at 5 uM measured 30 secs intervals for 60 mins by spectrophotometer analysis relative to control
A549 = test: Growth inhibition of human A549 cells after 48 hrs by SRB assay; format: functional, cell-based; details: A549, 48 h
HT-29 = test: Growth inhibition of combretastatin-resistant human HT-29 cells after 48 hrs by SRB assay; format: functional, cell-based; details: HT-29, 48 h
SK-OV-3 [3] = test: Cell cycle arrest in human SKOV3 cells assessed as accumulation at G2/M phase at 5 nM by FACS analysis; format: functional
DLD-1 = test: Growth inhibition of human DLD1 cells after 48 hrs by SRB assay; format: functional, cell-based; details: DLD-1, 48 h
[4] = Inhibition of tubulin polymerization
SK-OV-3 [5] = test: Cell cycle arrest in human SKOV3 cells assessed as accumulation at sub-G1 phase at 5 nM by FACS analysis; format: functional

Row | IC50 (SK-OV-3 [1]) [nM] | IC50 (MCF7) [nM] | IC50 (SK-OV-3 [2]) [nM] | IC50 (PC-3) [nM] | fold change (FC) (Bos taurus) | IC50 (A549) [nM] | IC50 (HT-29) [nM] | IC50 (DLD-1) [nM] | SMILES | IC50 (HUVEC) [nM] | IC50 (MRC5) [nM] | Activity (SK-OV-3 [3]) [%] | IC50 [4] [nM] | Activity (SK-OV-3 [5]) [%]
1 | 2.6 | 1.9 | 1.4 | 0.5 | 1.7 | 2.8 | 513 | 2.4 | COc1ccc(-c2nnnn2-c2cc(I)c(OC)c(I)c2)cc1O | 2.4 | 2.2 | 89 |  | 
2 |  |  |  |  |  |  |  |  | COc1ccc(-c2nnnn2-c2cc(OC)c(OC)c(OC)c2)cc1N |  |  |  | 2000 | 
3 | 5 |  |  |  |  |  |  |  | COc1ccc(/C=C\c2cc(Br)c(OC)c(Br)c2)cc1O | 3 |  | 52 |  | 
4 | 9.5 | 21 | 11 | 9 | 2.9 | 22 | > 500 | 24 | COc1ccc(-c2nnnn2-c2cc(OC)c(OC)c(OC)c2)cc1O | 13.6 | 12 | 25 |  | 
5 | 6.1 | 7 | 5.6 | 2.9 | 1.5 | 21 | > 500 | 8.2 | COc1ccc(-c2nnnn2-c2cc(Br)c(OC)c(Br)c2)cc1O | 6.6 | 5.7 | 40 |  | 

Row | SMILES | IC50 (SK-OV-3 [1]) [nM] | IC50 (MCF7) [nM] | IC50 (SK-OV-3 [2]) [nM] | IC50 (PC-3) [nM] | fold change (FC) (Bos taurus) | IC50 (A549) [nM] | IC50 (HT-29) [nM] | IC50 (DLD-1) [nM] | IC50 (HUVEC) [nM] | IC50 (MRC5) [nM] | Activity (SK-OV-3 [3]) [%] | IC50 [4] [nM] | Activity (SK-OV-3 [5]) [%]
6 | COc1ccc(/C=C\c2cc(OC)c(OC)c(OC)c2)cc1O [COMBRETASTATIN A4] |  | 3 | 4.2 | 2.9 | 3 | 7.9 | 538 | 3.3 |  | 2.8 | 31 |  | <5
7 | COc1ccc(/C=C\c2cc(I)c(OC)c(I)c2)cc1O | 5 |  |  |  |  |  |  |  | 1.9 |  | 84 |  | 

From ChEMBL document CHEMBL2046317, “A-ring dihalogenation increases the cellular activity of combretastatin-templated tetrazoles” (ACS Med Chem Lett, 2012)
